The target in the assay is T1, Mas-related G-protein coupled receptor member X2 (Homo sapiens, UniProt Q96LB1).
T1 sequence (Q96LB1 whole entry): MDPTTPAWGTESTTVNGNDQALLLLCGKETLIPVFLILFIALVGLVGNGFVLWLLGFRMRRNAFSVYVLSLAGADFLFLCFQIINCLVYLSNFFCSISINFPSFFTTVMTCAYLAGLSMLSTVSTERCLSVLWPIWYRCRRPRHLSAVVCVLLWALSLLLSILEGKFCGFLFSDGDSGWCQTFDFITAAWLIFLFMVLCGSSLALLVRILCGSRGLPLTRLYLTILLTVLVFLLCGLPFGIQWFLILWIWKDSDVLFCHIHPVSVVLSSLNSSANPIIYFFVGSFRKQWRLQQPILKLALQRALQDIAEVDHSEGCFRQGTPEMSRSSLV
Description: MRGPRX2 Activity Assay. The method, then: FlpIn TRex-MRGPRX2-HEK293 cells (herein TRex-MRPGRX2-HEK) stably transfected to express human MRGPRX2 were maintained at 37 °C with 5% CO2 and grown in DMEM supplemented with 10% FBS, 1% L-Glutamate, 1% penicillin/streptomycin, 100ug/mL Hygromycin B, and 15 µg/mL Blasticidin. GOI (MRGPRX2) expression was induced with 100ng/mL of Doxycycline 18-24 hours prior to experiment, in flask. On the day of experiment, cells were lifted with TripLE Express and seeded in 384-well white walled opaque bottomed, assay plates, at 8,000 cells per well in 5 µL freshly made assay buffer (HBSS, 20 mM HEPES, 0.1% BSA and 10 mM LiCl). Compounds solubilized in 100% DMSO at 30 mM were serially diluted (1:4) first in 100% DMSO, and an intermediate plate of assay buffer was used to establish a final top concentration of 30 µM (in assay plate). Final DMSO concentration was kept constant at 1% across assay plates. Cortistatin-14, at 30 mM stock concentration was solubilized in HBSS + 0.1% BSA, stored at -20°C in 5 µL aliquots and discarded after one freeze-thaw cycle. […] Antagonist equilibrium was established with 30 minutes preincubation, followed by no wash, direct addition, and stimulation of agonist for 1 hour at 37 °C / 5% CO2. IP-1 standards and HTRF detection reagents were added according to the IP-one Gq kit protocol purchased from CisBio (part number 62IPAPEJ). The plate was read on an EnVision XCite plate reader. The HTRF ratio was then calculated from raw data (channel1/channel2 ×10,000) and analyzed using either GraphPad Prism or a custom Python script to calculate IC50 using Log[Antagonist] vs. response (4 parameter) nonlinear regression.
As for `C[C@@H](C(=O)Nc1nc2cc3c(cc2s1)OC(F)(F)O3)N1CCO[C@@H](c2ccc(=O)[nH]c2)C1` [WO2025064535, Compound 3], the IC50 was determined as 49 nM.

For `C[C@@H](C(=O)Nc1nc2cc3c(cc2s1)OC(F)(F)O3)N1CCO[C@H](c2ccc(=O)[nH]c2)C1` [WO2025064535, Compound 4], the concentration for half-maximal inhibition (IC50) was > 30000 nM.

In the case of `C[C@@H](C(=O)Nc1nc2cc3c(cc2s1)OC(F)(F)O3)N1CCC[C@@H](CO)C1` [WO2025064535, Compound 7], the IC50 turned out to be 1130 nM.

The compound `C[C@@H](C(=O)Nc1cc2cc3c(cc2s1)OC(F)(F)O3)N1CCC(F)(F)[C@@H](c2c[nH]c(=O)c([C@H](N)C(F)(F)F)c2)C1` [WO2025064535, Compound 14] came in with a half-inhibitory concentration (IC50) of 12800 nM.

In the case of `C[C@@H](C(=O)Nc1nc2cc3c(cc2s1)CCC3)N1CCC(F)(F)CC1` [WO2025064535, Compound 18], the IC50 is 85 nM.

Take `C[C@@H](C(=O)Nc1nc2cc3c(cc2s1)OC(F)(F)O3)N1CCC(F)(F)[C@@H](c2c[nH]c(=O)c([C@H](N)C(F)F)c2)C1` [WO2025064535, Compound 21]: the IC50 worked out at 18 nM.

`C[C@@H](C(=O)Nc1nc2cc3c(cc2s1)OC(F)(F)O3)N1CCC(F)(F)[C@@H](c2c[nH]c(=O)c([C@@H](N)C(F)F)c2)C1` [WO2025064535, Compound 22] showed an IC50 of 17 nM.

Consider `C[C@@H](C(=O)Nc1nc2cc3c(cc2s1)OC(F)(F)O3)N1CCC(F)(F)[C@H](c2c[nH]c(=O)c([C@H](N)C(F)F)c2)C1` [WO2025064535, Compound 23], for which the IC50 was determined as 9010 nM.

With `C[C@@H](C(=O)Nc1nc2cc3c(cc2s1)OC(F)(F)O3)N1CCC(F)(F)[C@H](c2c[nH]c(=O)c([C@@H](N)C(F)F)c2)C1` [WO2025064535, Compound 24], the concentration for half-maximal inhibition (IC50) was > 30000 nM.

In turn, `C[C@@H](C(=O)Nc1nc2cc3c(cc2s1)CCC3)N1CCC(F)(F)[C@@H](c2ccc(=O)[nH]c2)C1` [WO2025064535, Compound 27] had an IC50 of 292 nM.

`C[C@@H](C(=O)Nc1nc2cc3c(cc2s1)OCCO3)N1CCC(F)(F)[C@H](c2ccc(=O)[nH]c2)C1` [WO2025064535, Compound 30] returned a half-inhibitory concentration (IC50) of 1070 nM.

Consider `C[C@@H](C(=O)Nc1nc2cc3c(cc2s1)OC(F)(F)O3)N1CCC(F)(F)[C@@H](c2ccc(=O)[nH]c2)C1` [WO2025064535, Compound 31], for which the half-maximal inhibitory concentration (IC50) was > 30000 nM.

Compound `C[C@@H](C(=O)Nc1nc2cc3c(cc2s1)OC(F)(F)O3)N1CCC(F)(F)[C@H](c2c[nH]c(=O)cn2)C1` [WO2025064535, Compound 35] displayed an IC50 of 1020 nM.

Consider `C[C@@H](C(=O)Nc1nc2cc3c(cc2s1)OC(F)(F)O3)N1CC[C@@H](F)[C@@H](c2cc[n+]([O-])cc2)C1` [WO2025064535, Compound 36], for which the IC50 is > 30000 nM.

Take `C[C@@H](C(=O)Nc1nc2cc3c(cc2s1)OC(F)(F)O3)N1CC[C@@H](F)[C@H](c2cc[n+]([O-])cc2)C1` [WO2025064535, Compound 37]: the IC50 is > 30000 nM.

Compound `C[C@@H](C(=O)Nc1nc2cc3c(cc2s1)OC(F)(F)O3)N1CC[C@H](F)[C@H](c2cc[n+]([O-])cc2)C1` [WO2025064535, Compound 39] had an IC50 of 223 nM.

In the case of `C[C@@H](C(=O)Nc1nc2cc3c(cc2s1)OCCO3)N1CCC(F)(F)[C@@H](c2c[nH]c(=O)cn2)C1` [WO2025064535, Compound 40], the IC50 amounted to 770 nM.

In the case of `C[C@@H](C(=O)Nc1nc2cc3c(cc2s1)OC(F)(F)O3)N1CCC(F)(F)[C@@H](c2c[nH]c(=O)c([C@@H](O)CO)c2)C1` [WO2025064535, Compound 42], the concentration for half-maximal inhibition (IC50) was > 30000 nM.

Take `C[C@@H](C(=O)Nc1nc2cc3c(cc2s1)OC(F)(F)O3)N1CCC(F)(F)[C@@H](c2c[nH]c(=O)c([C@H](O)CO)c2)C1` [WO2025064535, Compound 44]: the IC50 is > 30000 nM.

Turning to `C[C@@H](C(=O)Nc1nc2cc3c(cc2s1)OC(F)(F)O3)N1CCC(F)(F)[C@H](c2c[nH]c(=O)c([C@H](O)CO)c2)C1` [WO2025064535, Compound 45], 22 nM corresponded to half-maximal inhibition (IC50).

`C[C@@H](C(=O)Nc1nc2cc3c(cc2s1)OC(F)(F)O3)N1CCC[C@H](c2cc[n+]([O-])cc2)C1` [WO2025064535, Compound 50] displayed an IC50 of 222 nM.

As for `C[C@@H](C(=O)Nc1nc2cc3c(cc2s1)OC(F)(F)O3)N1CCC(F)(F)[C@@H](c2cc[n+]([O-])c([C@@H](O)CO)c2)C1` [WO2025064535, Compound 51], the IC50 is > 30000 nM.

For `C[C@@H](C(=O)Nc1nc2cc3c(cc2s1)OC(F)(F)O3)N1CCC(F)(F)[C@H](c2cc[n+]([O-])c([C@@H](O)CO)c2)C1` [WO2025064535, Compound 52], the IC50 is > 30000 nM.

`C[C@@H](C(=O)Nc1nc2cc3c(cc2s1)OC(F)(F)O3)N1CCC(F)(F)[C@@H](c2cc[n+]([O-])c([C@H](O)CO)c2)C1` [WO2025064535, Compound 53] came in with an IC50 of 30 nM.

As to `C[C@@H](C(=O)Nc1nc2cc3c(cc2s1)OC(F)(F)O3)N1CCC(F)(F)[C@@H](n2ccc(=O)[nH]c2=O)C1` [WO2025064535, Compound 62], the IC50 is > 30000 nM.

With `C[C@@H](C(=O)Nc1nc2cc3c(cc2s1)OC(F)(F)O3)N1CCC(F)(F)[C@H](n2ccc(=O)[nH]c2=O)C1` [WO2025064535, Compound 63], the IC50 was found to be 635 nM.

With `C[C@@H](C(=O)Nc1nc2cc3c(cc2s1)OC(F)(F)O3)N1CCC(F)(F)[C@@H](c2cc[n+]([O-])c(CN)c2)C1` [WO2025064535, Compound 64], the IC50 was > 30000 nM.

In turn, `C[C@@H](C(=O)Nc1nc2cc3c(cc2s1)OC(F)(F)O3)N1CCC(F)(F)[C@H](c2cc[n+]([O-])c(CN)c2)C1` [WO2025064535, Compound 65] registered an IC50 of 32 nM.

Take `C[C@@H](C(=O)Nc1nc2cc3c(cc2s1)OC(F)(F)O3)N1CCC(F)(F)[C@@H](c2c[nH]c(=O)c(CN3CCOCC3)c2)C1` [WO2025064535, Compound 66]: the IC50 was > 30000 nM.

`C[C@@H](C(=O)Nc1nc2cc3c(cc2s1)OC(F)(F)O3)N1CCC(F)(F)[C@H](c2c[nH]c(=O)c(CN3CCOCC3)c2)C1` [WO2025064535, Compound 67] registered a half-maximal inhibitory concentration (IC50) of 303 nM.

For the compound `C[C@@H](C(=O)Nc1nc2cc3c(cc2s1)OC(F)(F)O3)N1CCC(F)(F)[C@@H](c2c[nH]c(=O)c(CN3CCC(F)(F)CC3)c2)C1` [WO2025064535, Compound 68], the IC50 was > 30000 nM.

The compound `C[C@@H](C(=O)Nc1nc2cc3c(cc2s1)OC(F)(F)O3)N1CCC(F)(F)[C@H](c2c[nH]c(=O)c(CN3CCC(F)(F)CC3)c2)C1` [WO2025064535, Compound 69] gave an IC50 of 169 nM.

Regarding `C[C@@H](C(=O)Nc1nc2cc3c(cc2s1)OCO3)N1CCC(F)(F)[C@@H](c2cc[n+]([O-])cc2)C1` [WO2025064535, Compound 80], the midpoint of inhibition, the IC50, lay at 196 nM.

For the compound `C[C@@H](C(=O)Nc1nc2cc3c(cc2s1)OC(F)(F)O3)N1CCC(F)(F)[C@@H](c2c[nH]c(=O)c(CN)c2)C1` [WO2025064535, Compound 82], the IC50 was 2110 nM.

For `C[C@H](C(=O)Nc1nc2cc3c(cc2s1)OC(F)(F)O3)N1CCC(F)(F)[C@H](c2c[nH]c(=O)c(CN)c2)C1` [WO2025064535, Compound 83], the IC50 was > 30000 nM.

`C[C@H](C(=O)Nc1nc2cc3c(cc2s1)OC(F)(F)O3)N1CCC(F)(F)[C@@H](c2c[nH]c(=O)c(CN)c2)C1` [WO2025064535, Compound 84] had an IC50 of 1160 nM.

The compound `CNCc1cc([C@H]2CN([C@@H](C)C(=O)Nc3nc4cc5c(cc4s3)OC(F)(F)O5)CCC2(F)F)cc[n+]1[O-]` [WO2025064535, Compound 101] came in with an IC50 of 3430 nM.

In turn, `C[C@@H](C(=O)Nc1nc2cc3c(cc2s1)OC(F)(F)O3)N1CCC(F)(F)[C@@H](c2ncn[nH]2)C1` [WO2025064535, Compound 104] displayed an IC50 of 31 nM.

Compound `C[C@@H](C(=O)Nc1nc2cc3c(cc2s1)OC(F)(F)O3)N1CCC(F)(F)[C@H](c2ncn[nH]2)C1` [WO2025064535, Compound 105] yielded an IC50 of 509 nM.

As for `C[C@@H](C(=O)Nc1nc2cc3c(cc2s1)CCC3)N1CCC(F)(F)[C@@H](c2c[nH]c(=O)c(CO)c2)C1` [WO2025064535, Compound 106], the IC50 is > 30000 nM.

The IC50 is the midpoint of a concentration-inhibition curve. High values mean weaker potency, low ones greater potency.
